Assay results published in PubChem BioAssay AID330 (DTP/NCI, 2004).
Several values for one entry are separate records, joined by “and”; a condition that tells them apart may be missing. Equal values may be shown once. Toxic doses and inconclusive results are not listed.

Tested on: P388 leukemia ip, CD2F1 mice, survival T/C
Assay: NCI In Vivo Anticancer Drug Screen. Data for tumor model P388 Leukemia (intraperitoneal) in CD2F1 (CDF1) mice
Conditions: endpoint: median survival time, higher = longer survival
In short: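 Mice carrying the transplanted tumor received test compound or vehicle. Survival was recorded in each group, and the value is the treated-group measurement divided by that of the vehicle-treated control group.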

[1] = dose: 60.0 mg/kg/injection, schedule: Q01DX005 (ip), vehicle: saline with Tween-80
[2] = dose: 120.0 mg/kg/injection, schedule: Q01DX005 (ip), vehicle: saline with Tween-80
[3] = dose: 240.0 mg/kg/injection, schedule: Q01DX005 (ip), vehicle: saline with Tween-80
[4] = dose: 12.5 mg/kg/injection, schedule: Q01DX009 (ip), vehicle: saline with Tween-80
[5] = dose: 25.0 mg/kg/injection, schedule: Q01DX009 (ip), vehicle: saline with Tween-80
[6] = dose: 50.0 mg/kg/injection, schedule: Q01DX009 (ip), vehicle: saline with Tween-80
[7] = dose: 50.0 mg/kg/injection, schedule: Q01DX009 (ip), vehicle: saline
[8] = dose: 100.0 mg/kg/injection, schedule: Q01DX009 (ip), vehicle: saline
[9] = dose: 50.0 mg/kg/injection, schedule: Q01DX005 (ip), vehicle: Klucel (hydroxypropylcellulose) (HPC)
[10] = dose: 100.0 mg/kg/injection, schedule: Q01DX005 (ip), vehicle: Klucel (hydroxypropylcellulose) (HPC)
[11] = dose: 200.0 mg/kg/injection, schedule: Q01DX005 (ip), vehicle: Klucel (hydroxypropylcellulose) (HPC)
[12] = dose: 50.0 mg/kg/injection, schedule: Q01DX009 (ip), vehicle: Klucel (hydroxypropylcellulose) (HPC)
[13] = dose: 100.0 mg/kg/injection, schedule: Q01DX009 (ip), vehicle: Klucel (hydroxypropylcellulose) (HPC)
[14] = dose: 200.0 mg/kg/injection, schedule: Q01DX009 (ip), vehicle: Klucel (hydroxypropylcellulose) (HPC)
[15] = dose: 25.0 mg/kg/injection, schedule: Q01DX005 (ip), vehicle: Klucel (hydroxypropylcellulose) (HPC)
[16] = dose: 100.0 mg/kg/injection, schedule: Q01DX009 (ip), vehicle: saline with Tween-80

Structure (SMILES): CCC1=C[C@H]2CN(CCc3c([nH]c4ccccc34)[C@@](C(=O)OC)(c3cc4c(cc3OC)N(C)[C@H]3C(C(=O)OC)=C[C@]5(CC)C=CCN6CC[C@]43[C@@H]65)C2)C1
- T/C (dose: 1.0 mg/kg/injection, schedule: Q01DX001 (ip), vehicle: other): 101 % of control
- T/C (dose: 2.0 mg/kg/injection, schedule: Q01DX001 (ip), vehicle: other): 99 % of control
- T/C (dose: 4.0 mg/kg/injection, schedule: Q01DX001 (ip), vehicle: other): 105 % of control
- T/C (dose: 8.0 mg/kg/injection, schedule: Q01DX001 (ip), vehicle: other): 107 % of control and 120 % of control
- T/C (dose: 16.0 mg/kg/injection, schedule: Q01DX001 (ip), vehicle: distilled water + Tween-80): 124 % of control
- T/C (dose: 16.0 mg/kg/injection, schedule: Q01DX001 (ip), vehicle: other): 113 % of control
- T/C (dose: 64.0 mg/kg/injection, schedule: Q01DX001 (ip), vehicle: distilled water + Tween-80): 171 % of control
- T/C (dose: 64.0 mg/kg/injection, schedule: Q01DX001 (ip), vehicle: other): 121 % of control
- T/C (dose: 128.0 mg/kg/injection, schedule: Q01DX001 (ip), vehicle: other): 183 % of control

Structure (SMILES): CSC1=NC=C(C#N)C2=NC(c3c(F)cccc3Cl)NN12 (centres undefined)
- T/C [1]: 89 % of control
- T/C [2]: 89 % of control
- T/C [3]: 90 % of control

Structure (SMILES): CCCCC(CC)(CCC)CCN (centres undefined)
- T/C (dose: 6.25 mg/kg/injection, schedule: Q01DX009 (ip), vehicle: suspension in saline): 104 % of control
- T/C (dose: 12.5 mg/kg/injection, schedule: Q01DX009 (ip), vehicle: suspension in saline): 107 % of control
- T/C (dose: 25.0 mg/kg/injection, schedule: Q01DX009 (ip), vehicle: suspension in saline): 102 % of control

Structure (SMILES): CCN(CC)CCCCNc1ccc(NCCCCN(CC)CC)c2c1C(=O)c1ccccc1C2=O
- T/C (dose: 3.12 mg/kg/injection, schedule: Q01DX009 (ip), vehicle: saline): 90 % of control
- T/C (dose: 6.25 mg/kg/injection, schedule: Q01DX009 (ip), vehicle: saline): 90 % of control
- T/C [4]: 118 % of control
- T/C (dose: 12.5 mg/kg/injection, schedule: Q01DX009 (ip), vehicle: saline): 97 % of control
- T/C [5]: 115 % of control
- T/C [6]: 120 % of control
- T/C [7]: 91 % of control
- T/C [8]: 100 % of control

Structure (SMILES): O=C1c2cccc([N+](=O)[O-])c2C(=O)c2c1oc1ccc3ccccc3c21
- T/C [9]: 104 % of control
- T/C [10]: 102 % of control
- T/C [11]: 96 % of control

Structure (SMILES): C/C(CC/C(C)=N/N=C(\N)c1ccccn1)=N\N=C(/N)c1ccccn1
- T/C [12]: 99 % of control
- T/C [13]: 98 % of control
- T/C [14]: 99 % of control

Structure (SMILES): CCOC(Cn1cc([N+](=O)[O-])c(=O)[nH]c1=O)OCC
- T/C [15]: 90 % of control
- T/C [9]: 95 % of control

Structure (SMILES): COC(=O)C1C2C=CC(C1C(=O)OC)C1C(C(=O)NN)C(C(=O)NN)C21 (centres undefined)
- T/C [1]: 98 % of control
- T/C [2]: 97 % of control
- T/C [3]: 96 % of control

Structure (SMILES): FC(F)(F)C1(C(F)(F)F)[O][Sb]([c]2ccc(Cl)cc2)([c]2ccc(Cl)cc2)([c]2ccc(Cl)cc2)[O]1
- T/C [12]: 103 % of control
- T/C [13]: 88 % of control

Structure (SMILES): N#C/C(=N\Nc1ccccc1)C(N)=S
- T/C (dose: 12.5 mg/kg/injection, schedule: Q01DX009 (ip), vehicle: other): 109 % of control
- T/C (dose: 25.0 mg/kg/injection, schedule: Q01DX009 (ip), vehicle: other): 93 % of control
- T/C (dose: 50.0 mg/kg/injection, schedule: Q01DX009 (ip), vehicle: other): 91 % of control

Structure (SMILES): COC(=O)CCC(N=C(OC)c1ccccc1)C(=O)OC (centres undefined)
- T/C [9]: 98 % of control
- T/C [10]: 103 % of control
- T/C [11]: 101 % of control

Structure (SMILES): CC(C)C1C(=O)N(c2ccccc2)N(C)C1C (centres undefined)
- T/C (dose: 100.0 mg/kg/injection, schedule: Q04DX003 (ip), vehicle: Klucel (hydroxypropylcellulose) (HPC)): 100 % of control
- T/C (dose: 200.0 mg/kg/injection, schedule: Q04DX003 (ip), vehicle: Klucel (hydroxypropylcellulose) (HPC)): 104 % of control

Structure (SMILES): COc1ccc(NC(Cc2ccccc2)=NC(C)(C)C)cc1
- T/C [6]: 98 % of control
- T/C [16]: 89 % of control
- T/C (dose: 200.0 mg/kg/injection, schedule: Q01DX009 (ip), vehicle: saline with Tween-80): 94 % of control

Structure (SMILES): O=C(Cc1ccccc1)C1=S=C2SCCCN2C1=O
- T/C (dose: 100.0 mg/kg/injection, schedule: Q01DX001 (ip), vehicle: saline with Tween-80): 105 % of control
- T/C (dose: 200.0 mg/kg/injection, schedule: Q01DX001 (ip), vehicle: saline with Tween-80): 97 % of control
- T/C (dose: 400.0 mg/kg/injection, schedule: Q01DX001 (ip), vehicle: saline with Tween-80): 92 % of control

Structure (SMILES): COc1ccccc1-n1c(C)nc2c(cnn2C)c1=O
- T/C [9]: 100 % of control
- T/C [10]: 100 % of control
- T/C [11]: 103 % of control

Structure (SMILES): CCCCCCC1(/C=C/c2ccc(Cl)cc2Cl)OCCCO1
- T/C (dose: 50.0 mg/kg/injection, schedule: Q01DX009 (ip), vehicle: saline + alcohol): 94 % of control
- T/C (dose: 100.0 mg/kg/injection, schedule: Q01DX009 (ip), vehicle: saline + alcohol): 97 % of control
- T/C (dose: 200.0 mg/kg/injection, schedule: Q01DX009 (ip), vehicle: saline + alcohol): 97 % of control

Structure (SMILES): C[CH2][Sn]([Cl])([CH2]C)[O][Sn]([CH2]C)([CH2]C)[O][Sn]([Cl])([CH2]C)[CH2]C
- T/C (dose: 6.25 mg/kg/injection, schedule: Q01DX005 (ip), vehicle: Klucel (hydroxypropylcellulose) (HPC)): 118 % of control and 121 % of control
- T/C (dose: 12.5 mg/kg/injection, schedule: Q01DX005 (ip), vehicle: Klucel (hydroxypropylcellulose) (HPC)): 113 % of control
- T/C [15]: 111 % of control

Structure (SMILES): Cc1ccc(N(O)C(C)(C)C)cc1
- T/C [5]: 97 % of control
- T/C (dose: 25.0 mg/kg/injection, schedule: Q04DX003 (ip), vehicle: gum acacia): 99 % of control
- T/C [6]: 91 % of control
- T/C (dose: 50.0 mg/kg/injection, schedule: Q04DX003 (ip), vehicle: gum acacia): 100 % of control
- T/C [16]: 102 % of control
- T/C (dose: 100.0 mg/kg/injection, schedule: Q04DX003 (ip), vehicle: gum acacia): 110 % of control
- T/C (dose: 200.0 mg/kg/injection, schedule: Q04DX003 (ip), vehicle: gum acacia): 100 % of control

Structure (SMILES): O=c1[nH]c(Cl)nc2nc(Cl)[nH]c12
- T/C [9]: 100 % of control
- T/C [10]: 101 % of control
- T/C [11]: 100 % of control

Structure (SMILES): Cc1ccc2[nH]c(=O)oc(=O)c2c1
- T/C (dose: 25.0 mg/kg/injection, schedule: Q01DX009 (ip), vehicle: saline): 105 % of control
- T/C [7]: 107 % of control
- T/C (dose: 50.0 mg/kg/injection, schedule: Q04DX003 (ip), vehicle: saline with Tween-80): 100 % of control
- T/C [8]: 96 % of control
- T/C (dose: 100.0 mg/kg/injection, schedule: Q04DX003 (ip), vehicle: saline with Tween-80): 108 % of control
- T/C (dose: 200.0 mg/kg/injection, schedule: Q01DX009 (ip), vehicle: saline): 110 % of control
- T/C (dose: 200.0 mg/kg/injection, schedule: Q04DX003 (ip), vehicle: saline with Tween-80): 108 % of control

Structure (SMILES): CSCCC(NCC(=O)Nc1ccc(S(=O)(=O)c2ccc(NC(=O)CNC(CCSC)C(=O)O)cc2)cc1)C(=O)O (centres undefined)
- T/C [9]: 100 % of control
- T/C [10]: 101 % of control
- T/C [11]: 101 % of control

Structure (SMILES): Cc1ccc(Cl)cc1S
- T/C (dose: 50.0 mg/kg/injection, schedule: Q04DX003 (ip), vehicle: saline): 95 % of control
- T/C (dose: 100.0 mg/kg/injection, schedule: Q04DX003 (ip), vehicle: saline): 95 % of control

Structure (SMILES): CC(SC(=O)c1ccccc1)(SC(=O)c1ccccc1)c1ccccc1
- T/C [12]: 94 % of control
- T/C [13]: 95 % of control
- T/C [14]: 93 % of control

Structure (SMILES): NC(N)=N/N=C1\C/C(=N\N=C(N)N)c2ccccc21
- T/C (dose: 6.25 mg/kg/injection, schedule: Q01DX009 (ip), vehicle: saline with Tween-80): 99 % of control
- T/C [4]: 97 % of control
- T/C (dose: 25.0 mg/kg/injection, schedule: Q01DX001 (ip), vehicle: saline with Tween-80): 107 % of control
- T/C [5]: 91 % of control
- T/C (dose: 50.0 mg/kg/injection, schedule: Q01DX001 (ip), vehicle: saline with Tween-80): 100 % of control
